From patent US20210387968A1, “HETEROARYLMETHYLENE DERIVATIVES AS DNA POLYMERASE THETA INHIBITORS” (IDEAYA Biosciences, Inc., priority 2019, published 2021)

target: T1, Pol theta polymerase domain (residues 1819-2590) (Homo sapiens, UniProt O75417); experiment: Pol theta polymerase primer extension assay (molecular beacon fluorescence); assay type: biochemical; details: 4 nM enzyme, 15 min pre-incubation, fluorescence change over 30 min
T1 construct: Pol theta polymerase domain (residues 1819-2590) at a final concentration of 4 nM
T1 sequence (O75417 1819-2590): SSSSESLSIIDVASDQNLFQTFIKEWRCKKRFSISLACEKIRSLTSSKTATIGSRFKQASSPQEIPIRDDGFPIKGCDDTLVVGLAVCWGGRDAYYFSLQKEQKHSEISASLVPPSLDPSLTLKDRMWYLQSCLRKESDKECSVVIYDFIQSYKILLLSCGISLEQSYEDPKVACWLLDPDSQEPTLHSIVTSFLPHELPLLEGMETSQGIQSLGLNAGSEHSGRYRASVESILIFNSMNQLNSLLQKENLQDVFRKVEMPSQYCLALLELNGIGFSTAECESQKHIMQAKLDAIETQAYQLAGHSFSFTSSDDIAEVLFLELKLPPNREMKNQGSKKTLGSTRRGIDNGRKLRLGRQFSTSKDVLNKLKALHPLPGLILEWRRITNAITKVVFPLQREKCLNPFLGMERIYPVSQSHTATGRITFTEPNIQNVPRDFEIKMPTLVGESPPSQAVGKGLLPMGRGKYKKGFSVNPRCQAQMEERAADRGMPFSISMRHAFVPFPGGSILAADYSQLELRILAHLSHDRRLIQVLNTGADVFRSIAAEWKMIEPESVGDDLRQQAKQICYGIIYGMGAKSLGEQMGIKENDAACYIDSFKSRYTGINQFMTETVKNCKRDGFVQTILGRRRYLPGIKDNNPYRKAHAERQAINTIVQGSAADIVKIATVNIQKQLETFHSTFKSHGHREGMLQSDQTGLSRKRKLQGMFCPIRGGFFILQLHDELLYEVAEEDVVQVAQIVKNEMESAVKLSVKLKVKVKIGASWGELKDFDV
Protocol: The ability of the compounds of Formula (I) to inhibit polymerase activity of Pol theta was determined using the assay described below.
A mixture of 20 uL of Pol theta polymerase domain (residues 1819-2590) at a final concentration of 4 nM in assay buffer (20 m M TRIS, pH 7.80, 50 mM KCl, 10 mM MgCl2, 1 mM DTT, 0.01% BSA, 0.01% Tween20) was added to test compounds (11-point dilution series of test compounds) except the low control wells without test compounds. The above enzyme and test compound inhibitor mixture was then incubated at room temperature for 15 min. An equal volume (20 μl) of dNTP substrate mix (48 μM) and primed molecular beacon DNA (obtained by annealing template SEQ ID NO 2: (5′-CCTTCCTCCCGTGTCTTG-TACCTTCCCGTCA-GGAGGAAGG-3′) with 5′-TAMRA and 3′-BHQ and primer DNA (SEQ ID NO 3: 5′-GACGGGAAGG-3′) in 10 mM Tris-HCl pH 8.0, 100 mM NaCl buffer) (96 nM) in assay buffer was added to all the test wells. The inhibition activity was measured by monitoring the fluorescence change over 30 min at 535 nm upon excitation at 485 nm. The high control (DMSO with enzyme) with high fluorescence intensity represents no inhibition of polymerase reaction while the low control (DMSO with buffer) with low fluorescence intensity represents full inhibition of polymerase activity. Slope of the reaction progress curves were used to calculate the rate of polymerization. The rates were used to determine the percent inhibition using a four-parameter inhibition model to generate IC50, Hill slope and max inhibition.

First: 2-([[1-(4-fluorophenyl)-4- (trifluoromethyl)imidazol-2- yl]methyl]amino)-4,6- bis(trifluoromethyl)benzonitrile [compound 9]
Second: Cc1nc(OCc2nccn2-c2ccccc2)c(C#N)c(C)c1Cl [compound 1, 5-chloro-4,6-dimethyl-2-((1-phenyl-1H-imidazol-2-yl)methoxy)-nicotinonitrile]
The IC50 of the first is lower: < 200 nM for the first, 500 to 1000 nM for the second. The first is the more potent here.

Cc1nc(NCc2nccn2-c2ccccc2)c(C#N)c(C)c1Cl [compound 2, 5-chloro-4,6-dimethyl-2-((1-phenyl-1H-imidazol-2-yl)methylamino)-nicotinonitrile] and Cc1nc(NCc2nccn2-c2ccc(F)cc2)c(C#N)c(C)c1Cl [compound 3, 5-chloro-2-(((1-(4-fluorophenyl)-1H-imidazol-2-yl)methyl)amino)-4,6-dimethyl-nicotinonitrile] cannot be ordered by IC50: < 200 nM for the first, < 200 nM for the second.

Fc1ccc(-n2ccnc2CNc2cc(Cl)cc(C(F)(F)F)c2)cc1 [compound 4, 3-chloro-N-((1-(4-fluorophenyl)-1H-imidazol-2-yl)methyl)-5-(trifluoromethyl)-benzenamine] and N#Cc1c(C(F)(F)F)cc(C(F)(F)F)nc1NCc1nccn1-c1ccc(F)cc1 [compound 5, 2-([[1-(4-fluorophenyl)-1H-imidazol-2-yl]methyl]amino)-4,6-bis(trifluoromethyl)-pyridine-3-carbonitrile] cannot be ordered by IC50: < 200 nM for the first, < 200 nM for the second.

COc1ccc(-n2ccnc2CNc2nc(C(F)(F)F)cc(C(F)(F)F)c2C#N)cc1 [compound 6, 2-([[1-(4-methoxyphenyl)-1H-imidazol-2-yl]methyl]amino)-4,6-bis(trifluoromethyl)-pyridine-3-carbonitrile] and N#Cc1c(C(F)(F)F)cc(C(F)(F)F)nc1NCc1nccn1Cc1ccc(F)cc1 [compound 7, 2-[([1-[(4-fluorophenyl)methyl]-1H-imidazol-2-yl]methyl)amino]-4,6-bis-(trifluoromethyl)pyridine-3-carbonitrile] cannot be ordered by IC50: < 200 nM for the first, < 200 nM for the second.

N#Cc1c(C(F)(F)F)cc(C(F)(F)F)nc1OCc1nccn1-c1ccc(F)cc1 [compound 8, 2-[[1-(4-fluorophenyl)-1H-imidazol-2-yl]methoxy]-4,6-bis(trifluoromethyl)-pyridine-3-carbonitrile] and N#Cc1c(C(F)(F)F)cc(C(F)(F)F)nc1NCc1nccnc1-c1ccc(F)cc1 [compound 10, 2-((3-(4-fluorophenyl)pyrazin-2-yl)methylamino)-4,6-bis(trifluoromethyl)-nicotinonitrile] cannot be ordered by IC50: < 200 nM for the first, < 200 nM for the second.

N#Cc1c(C(F)(F)F)cc(C(F)(F)F)nc1NCc1ncncc1-c1ccc(F)cc1 [compound 11, 2-((5-(4-fluorophenyl)pyrimidin-4-yl)methylamino)-4,6-bis(trifluoromethyl)-nicotinonitrile] and N#Cc1c(C(F)(F)F)cc(C(F)(F)F)nc1NCc1nncn1-c1ccc(F)cc1 [compound 12, 2-((4-(4-fluorophenyl)-4H-1,2,4-triazol-3-yl)methylamino)-4,6-bis(trifluoromethyl)-nicotinonitrile] cannot be ordered by IC50: < 200 nM for the first, < 200 nM for the second.

First: CC(Nc1nc(C(F)(F)F)cc(C(F)(F)F)c1C#N)c1nccn1-c1ccc(F)cc1 (stereo not drawn) [compound 13, 2-([1-[1-(4-fluorophenyl)imidazol-2-yl]ethyl]amino)-4,6-bis(trifluoromethyl)pyridine-3-carbonitrile]
Second: Cn1cc(-c2ccc(F)cc2)c(CNc2nc(C(F)(F)F)cc(C(F)(F)F)c2C#N)n1 [compound 14, 2-(((4-(4-fluorophenyl)-1-methyl-1H-pyrazol-3-yl)methyl)amino)-4,6-bis(trifluoromethyl)nicotinonitrile]
The IC50 of the first is lower: < 200 nM for the first, 1000 to 10000 nM for the second. The first is the more potent here.

Compared with N#Cc1c(C(F)(F)F)cc(C(F)(F)F)nc1NCc1n[nH]cc1-c1ccc(F)cc1 [compound 15, 2-(((4-(4-fluorophenyl)-1H-pyrazol-3-yl)methyl)amino)-4,6-bis(trifluoromethyl)-nicotinonitrile], N#Cc1c(C(F)(F)F)cc(C(F)(F)F)nc1NCc1ncccc1-c1ccc(F)cc1 [compound 16, 2-(((3-(4-fluorophenyl)pyridin-2-yl)methyl)amino)-4,6-bis(trifluoromethyl)-nicotinonitrile] is lower in IC50: 1000 to 10000 nM for the first, < 200 nM for the second.

Compared with N#Cc1c(C(F)(F)F)cc(C(F)(F)F)nc1NCc1nccnc1-c1ccc(F)cc1Cl [compound 17, 2-([[3-(2-chloro-4-fluorophenyl)-pyrazin-2-yl]methyl]amino)-4,6-bis(trifluoromethyl)pyridine-3-carbonitrile], N#Cc1c(C(F)(F)F)cc(C(F)(F)F)nc1NCc1ncncc1-c1ccncc1 [compound 18, 2-([[5-(pyridin-4-yl)pyrimidin-4-yl]methyl]amino)-4,6-bis(trifluoro-methyl)pyridine-3-carbonitrile] is higher in IC50: 500 to 1000 nM for the first, 1000 to 10000 nM for the second. The first is the more potent here.

N#Cc1c(C(F)(F)F)cc(C(F)(F)F)nc1OCc1ncccc1-c1ccc(F)cc1 [compound 19, 2-[[3-(4-fluorophenyl)pyridin-2-yl]methoxy]-4,6-bis(trifluoromethyl)pyridine-3-carbonitrile] and Cc1ccc(-c2ccc(F)cc2)c(CNc2nc(C(F)(F)F)cc(C(F)(F)F)c2C#N)n1 [compound 20, 2-([[3-(4-fluorophenyl)-6-methylpyridin-2-yl]methyl]amino)-4,6-bis(trifluoromethyl)pyridine-3-carbonitrile] cannot be ordered by IC50: < 200 nM for the first, < 200 nM for the second.

First: N#Cc1c(C(F)(F)F)cc(C(F)(F)F)nc1NCc1nccnc1-c1ccccn1 [compound 21, 2-(((3-(pyridin-2-yl)pyrazin-2-yl)methyl)amino)-4,6-bis(trifluoromethyl)-nicotinonitrile]
Second: N#Cc1c(C(F)(F)F)cc(C(F)(F)F)nc1NCc1ncccc1-c1ccccn1 [compound 22]
The IC50 of the first is higher: 200 to 500 nM for the first, < 200 nM for the second. The second is the more potent here.

N#Cc1c(C(F)(F)F)cc(C(F)(F)F)nc1NCc1nc(O)ccc1-c1ccc(F)cc1 [compound 23, 2-([[3-(4-fluorophenyl)-6-oxo-1H-pyridin-2-yl]methyl]amino)-4,6-bis(trifluoro-methyl)pyridine-3-carbonitrile] and N#Cc1ccc(-c2ccc(F)cc2)c(CNc2nc(C(F)(F)F)cc(C(F)(F)F)c2C#N)n1 [compound 24, 6-([[3-cyano-4,6-bis(trifluoromethyl)pyridin-2-yl]amino]methyl)-5-(4-fluorophenyl)pyridine-2-carbonitrile] cannot be ordered by IC50: < 200 nM for the first, < 200 nM for the second.

First: N#Cc1c(C(F)(F)F)cc(C(F)(F)F)nc1NCc1ncccc1-c1ccc(Br)cc1 [compound 25, 2-([[3-(4-bromophenyl)pyridin-2-yl]methyl]amino)-4,6-bis(trifluoromethyl)-pyridine-3-carbonitrile]
Second: N#Cc1c(C(F)(F)F)cc(C(F)(F)F)nc1NCc1ncnn1-c1ccc(F)cc1 [compound 26, 2-(((1-(4-fluorophenyl)-1H-1,2,4-triazol-5-yl)methyl)amino)-4,6-bis(trifluoro-methyl)nicotinonitrile]
The IC50 of the first is lower: < 200 nM for the first, 200 to 500 nM for the second.

COc1ccc(-c2ccc(F)cc2)c(CNc2nc(C(F)(F)F)cc(C(F)(F)F)c2C#N)n1 [compound 27, 2-([[3-(4-fluorophenyl)-6-methoxypyridin-2-yl]methyl]amino)-4,6-bis(trifluoromethyl)pyridine-3-carbonitrile] gave an IC50 of 1000 to 10000 nM.
